Results as given in US20250228239A1, “MOLECULES HAVING PESTICIDAL UTILITY, AND INTERMEDIATES, COMPOSITIONS, AND PROCESSES, RELATED THERETO” (priority 2024, published 2025).

Columns and labels:
[1] = system: Beet Armyworm (Spodoptera exigua, LAPHEG); assay: Bioassays on Beet Armyworm (BAW), 128-well diet tray assay; type: in vivo; details: Spodoptera exigua; Table ABC: Biological Results; species BAW; read-out: BAW
Method in brief: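 One to five second-instar larvae per well on artificial diet surface-treated with 50 μg/cm^2 test molecule (applied in 90:10 acetone-water, dried), eight wells per compound. Trays held vented at 25° C., 14:10 light-dark for five to seven days; percent mortality averaged over the eight wells.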

[2] = system: Cabbage Looper (Trichoplusia ni, TRIPNI); assay: Bioassays on Cabbage Looper (CL), 128-well diet tray assay; type: in vivo; details: Trichoplusia ni; Table ABC: Biological Results; species CL; read-out: CL
Method in brief: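 Diet tray, 2nd instar, 1–5 larvae/well; 50 μg/cm^2 compound surface-applied (acetone:water 90:10), dried; 8 wells/treatment; 25° C, 14:10 L:D, 5–7 d; % mortality, mean of 8 wells.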

O=C(Nc1ccc(F)c(NC(=O)C(F)F)c1F)c1cc(NC(=O)[C@H]2[C@H](c3cc(Cl)c(Cl)c(Cl)c3)C2(Cl)Cl)ccc1Cl [F1269, 2-Chloro-5-((1R,3R)-2,2-dichloro-3-(3,4,5-trichlorophenyl)cyclopropane-1-carboxamido)-N-(3-(2,2-difluoroacetamido)-2,4-difluorophenyl)benzamide]
pest or weed control at 50 µg/cm2 [1]: 50 to 100%
pest or weed control at 50 µg/cm2 [2]: 50 to 100%

O=C(Nc1c(F)cc(NC(=O)C(Cl)Cl)cc1F)c1cc(NC(=O)[C@H]2[C@H](c3ccc(Cl)c(Cl)c3)C2(Cl)Cl)ccc1Cl [F1272, 2-Chloro-5-((1R,3R)-2,2-dichloro-3-(3,4-dichlorophenyl)cyclopropane-1-carboxamido)-N-(4-(2,2-dichloroacetamido)-2,6-difluorophenyl)benzamide]
pest or weed control at 50 µg/cm2 [1]: 50 to 100%
pest or weed control at 50 µg/cm2 [2]: 50 to 100%

CC(C)(C)C(=O)Nc1c(F)ccc(NC(=O)c2cc(NC(=O)[C@H]3[C@H](c4ccc(F)c(C(F)(F)F)c4)C3(Cl)Cl)ccc2Cl)c1F [F1274, 2-Chloro-5-((1R,3R)-2,2-dichloro-3-(4-fluoro-3-(trifluoromethyl)phenyl)cyclopropane-1-carboxamido)-N-(2,4-difluoro-3-pivalamidophenyl)benzamide]
pest or weed control at 50 µg/cm2 [1]: 50 to 100%
pest or weed control at 50 µg/cm2 [2]: 50 to 100%

Nc1c(F)ccc(NC(=O)c2cc(NC(=O)[C@H]3[C@H](c4ccc(Cl)c(Cl)c4)C3(Cl)Cl)cc(F)c2Cl)c1F [F1284, N-(3-Amino-2,4-difluorophenyl)-2-chloro-5-((1R,3R)-2,2-dichloro-3-(3,4-dichlorophenyl)cyclopropane-1-carboxamido)-3-fluorobenzamide]
pest or weed control at 50 µg/cm2 [1]: 50 to 100%
pest or weed control at 50 µg/cm2 [2]: 50 to 100%

Nc1c(F)ccc(NC(=O)c2cc(NC(=O)[C@H]3[C@H](c4ccc(F)c(C(F)(F)F)c4)C3(Cl)Cl)cc(F)c2Cl)c1F [F1285, N-(3-Amino-2,4-difluorophenyl)-2-chloro-5-((1R,3R)-2,2-dichloro-3-(4-fluoro-3-(trifluoromethyl)phenyl)cyclopropane-1-carboxamido)-3-fluorobenzamide]
pest or weed control at 50 µg/cm2 [1]: 50 to 100%
pest or weed control at 50 µg/cm2 [2]: 50 to 100%

O=C(Nc1ccc(F)c(NC(=O)C(F)F)c1F)c1cc(NC(=O)[C@H]2[C@H](c3ccc(Cl)c(Cl)c3)C2(Cl)Cl)cc(F)c1Cl [F1287, 2-Chloro-5-((1R,3R)-2,2-dichloro-3-(3,4-dichlorophenyl)cyclopropane-1-carboxamido)-N-(3-(2,2-difluoroacetamido)-2,4-difluorophenyl)-3-fluorobenzamide]
pest or weed control at 50 µg/cm2 [1]: 50 to 100%
pest or weed control at 50 µg/cm2 [2]: 50 to 100%

O=C(Nc1ccc(F)c(NC(=O)C(F)(F)F)c1F)c1cc(NC(=O)[C@H]2[C@H](c3ccc(Cl)c(Cl)c3)C2(Cl)Cl)cc(F)c1Cl [F1288, 2-Chloro-5-((1R,3R)-2,2-dichloro-3-(3,4-dichlorophenyl)cyclopropane-1-carboxamido)-N-(2,4-difluoro-3-(2,2,2-trifluoroacetamido)phenyl)-3-fluorobenzamide]
pest or weed control at 50 µg/cm2 [1]: 50 to 100%
pest or weed control at 50 µg/cm2 [2]: 50 to 100%

O=C(Nc1ccc(F)c(NC(=O)C(F)F)c1F)c1cc(NC(=O)[C@H]2[C@H](c3ccc(F)c(C(F)(F)F)c3)C2(Cl)Cl)cc(F)c1Cl [F1289, 2-Chloro-5-((1R,3R)-2,2-dichloro-3-(4-fluoro-3-(trifluoromethyl)phenyl)-cyclopropane-1-carboxamido)-N-(3-(2,2-difluoroacetamido)-2,4-difluorophenyl)-3-fluorobenzamide]
pest or weed control at 50 µg/cm2 [1]: 50 to 100%
pest or weed control at 50 µg/cm2 [2]: 50 to 100%

O=C(Nc1ccc(F)c(NC(=O)C(F)(F)F)c1F)c1cc(NC(=O)[C@H]2[C@H](c3ccc(F)c(C(F)(F)F)c3)C2(Cl)Cl)cc(F)c1Cl [F1290, 2-Chloro-5-((1R,3R)-2,2-dichloro-3-(4-fluoro-3-(trifluoromethyl)phenyl)cyclopropane-1-carboxamido)-N-(2,4-difluoro-3-(2,2,2-trifluoroacetamido)phenyl)-3-fluorobenzamide]
pest or weed control at 50 µg/cm2 [1]: 50 to 100%
pest or weed control at 50 µg/cm2 [2]: 50 to 100%

O=C(Nc1ccc(F)c(NC(=O)C(F)(F)F)c1F)c1cc(NC(=O)[C@H]2[C@H](c3ccc(F)c(Cl)c3)C2(Cl)Cl)cc(F)c1Cl [F1291, 2-Chloro-5-((1R,3R)-2,2-dichloro-3-(3-chloro-4-fluorophenyl)cyclopropane-1-carboxamido)-N-(2,4-difluoro-3-(2,2,2-trifluoroacetamido)phenyl)-3-fluorobenzamide]
pest or weed control at 50 µg/cm2 [1]: 50 to 100%
pest or weed control at 50 µg/cm2 [2]: 50 to 100%

O=C(Nc1ccc(F)c(NCc2ccc([N+](=O)[O-])cc2)c1F)c1cc(NC(=O)[C@H]2[C@H](c3ccc(F)c(C(F)(F)F)c3)C2(Cl)Cl)ccc1Cl [F1296, 2-Chloro-5-((1R,3R)-2,2-dichloro-3-(4-fluoro-3-(trifluoromethyl)phenyl)cyclopropane-1-carboxamido)-N-(2,4-difluoro-3-((4-nitrobenzyl)amino)phenyl)benzamide]
pest or weed control at 50 µg/cm2 [1]: 50 to 100%
pest or weed control at 50 µg/cm2 [2]: 50 to 100%

Cc1ccc(C(=O)Nc2c(F)ccc(NC(=O)c3cc(NC(=O)[C@H]4[C@H](c5ccc(F)c(C(F)(F)F)c5)C4(Cl)Cl)ccc3Cl)c2F)s1 [F1302, N-(3-(2-Chloro-5-((1R,3R)-2,2-dichloro-3-(4-fluoro-3-(trifluoromethyl)phenyl)cyclopropane-1-carboxamido)benzamido)-2,6-difluorophenyl)-5-methylthiophene-2-carboxamide]
pest or weed control at 50 µg/cm2 [1]: 50 to 100%
pest or weed control at 50 µg/cm2 [2]: 50 to 100%

Nc1c(F)ccc(NC(=O)c2cc(NC(=O)[C@H]3[C@H](c4cc(Cl)cc(Cl)c4)C3(Cl)Cl)cc(F)c2Cl)c1F [F1324, N-(3-Amino-2,4-difluorophenyl)-2-chloro-5-((1R,3R)-2,2-dichloro-3-(3,5-dichlorophenyl)cyclopropane-1-carboxamido)-3-fluorobenzamide]
pest or weed control at 50 µg/cm2 [1]: 50 to 100%
pest or weed control at 50 µg/cm2 [2]: 50 to 100%

Nc1c(F)ccc(NC(=O)c2cc(NC(=O)[C@H]3[C@H](c4cc(Cl)c(Cl)c(Cl)c4)C3(Cl)Cl)cc(F)c2Cl)c1F [F1325, N-(3-Amino-2,4-difluorophenyl)-2-chloro-5-((1R,3R)-2,2-dichloro-3-(3,4,5-trichlorophenyl)cyclopropane-1-carboxamido)-3-fluorobenzamide]
pest or weed control at 50 µg/cm2 [1]: 50 to 100%
pest or weed control at 50 µg/cm2 [2]: 50 to 100%

O=C(Nc1ccc(F)c(NC(=O)C(F)(F)F)c1F)c1cc(NC(=O)[C@H]2[C@H](c3cc(Cl)cc(Cl)c3)C2(Cl)Cl)cc(F)c1Cl [F1330, 2-Chloro-5-((1R,3R)-2,2-dichloro-3-(3,5-dichlorophenyl)cyclopropane-1-carboxamido)-N-(2,4-difluoro-3-(2,2,2-trifluoroacetamido)phenyl)-3-fluorobenzamide]
pest or weed control at 50 µg/cm2 [1]: 50 to 100%
pest or weed control at 50 µg/cm2 [2]: 50 to 100%

O=C(Nc1ccc(F)c(NC(=O)C(F)F)c1F)c1cc(NC(=O)[C@H]2[C@H](c3cc(Cl)cc(Cl)c3)C2(Cl)Cl)cc(F)c1Cl [F1333, 2-Chloro-5-((1R,3R)-2,2-dichloro-3-(3,5-dichlorophenyl)cyclopropane-1-carboxamido)-N-(3-(2,2-difluoroacetamido)-2,4-difluorophenyl)-3-fluorobenzamide]
pest or weed control at 50 µg/cm2 [1]: 50 to 100%
pest or weed control at 50 µg/cm2 [2]: 50 to 100%

O=C(Nc1ccc(F)c(NC(=O)C(F)(F)F)c1F)c1cc(NC(=O)[C@H]2[C@H](c3cc(Cl)c(Cl)c(Cl)c3)C2(Cl)Cl)cc(F)c1Cl [F1334, 2-Chloro-5-((1R,3R)-2,2-dichloro-3-(3,4,5-trichlorophenyl)cyclopropane-1-carboxamido)-N-(2,4-difluoro-3-(2,2,2-trifluoroacetamido)phenyl)-3-fluorobenzamide]
pest or weed control at 50 µg/cm2 [1]: 50 to 100%
pest or weed control at 50 µg/cm2 [2]: 50 to 100%

O=C(Nc1ccc(F)c(NC(=O)C(F)F)c1F)c1cc(NC(=O)[C@H]2[C@H](c3cc(Cl)c(Cl)c(Cl)c3)C2(Cl)Cl)cc(F)c1Cl [F1335, 2-Chloro-5-((1R,3R)-2,2-dichloro-3-(3,4,5-trichlorophenyl)cyclopropane-1-carboxamido)-N-(3-(2,2-difluoroacetamido)-2,4-difluorophenyl)-3-fluorobenzamide]
pest or weed control at 50 µg/cm2 [1]: 50 to 100%
pest or weed control at 50 µg/cm2 [2]: 50 to 100%

Nc1ccc(F)c(NC(=O)c2cc(NC(=O)[C@H]3[C@H](c4cc(Cl)cc(Cl)c4)C3(Cl)Cl)cc(F)c2Cl)c1F [F1336, N-(3-Amino-2,6-difluorophenyl)-2-chloro-5-((1R,3R)-2,2-dichloro-3-(3,5-dichlorophenyl)cyclopropane-1-carboxamido)-3-fluorobenzamide]
pest or weed control at 50 µg/cm2 [1]: 50 to 100%
pest or weed control at 50 µg/cm2 [2]: 50 to 100%

Nc1ccc(F)c(NC(=O)c2cc(NC(=O)[C@H]3[C@H](c4cc(Cl)c(Cl)c(Cl)c4)C3(Cl)Cl)cc(F)c2Cl)c1F [F1337, N-(3-Amino-2,6-difluorophenyl)-2-chloro-5-((1R,3R)-2,2-dichloro-3-(3,4,5-trichlorophenyl)cyclopropane-1-carboxamido)-3-fluorobenzamide]
pest or weed control at 50 µg/cm2 [1]: 50 to 100%
pest or weed control at 50 µg/cm2 [2]: 50 to 100%

Nc1ccc(F)c(NC(=O)c2cc(NC(=O)[C@H]3[C@H](c4ccc(Cl)c(Cl)c4)C3(Cl)Cl)cc(F)c2Cl)c1F [F1338, N-(3-Amino-2,6-difluorophenyl)-2-chloro-5-((1R,3R)-2,2-dichloro-3-(3,4-dichlorophenyl)cyclopropane-1-carboxamido)-3-fluorobenzamide]
pest or weed control at 50 µg/cm2 [1]: 50 to 100%
pest or weed control at 50 µg/cm2 [2]: 50 to 100%

Nc1ccc(F)c(NC(=O)c2cc(NC(=O)[C@H]3[C@H](c4ccc(F)c(C(F)(F)F)c4)C3(Cl)Cl)cc(F)c2Cl)c1F [F1339, N-(3-Amino-2,6-difluorophenyl)-2-chloro-5-((1R,3R)-2,2-dichloro-3-(4-fluoro-3-(trifluoromethyl)phenyl)cyclopropane-1-carboxamido)-3-fluorobenzamide]
pest or weed control at 50 µg/cm2 [1]: 50 to 100%
pest or weed control at 50 µg/cm2 [2]: 50 to 100%
